This note sets out measurements from patent US20180271873A1, “METHODS FOR TREATING VIRAL INFECTIONS” (priority 2015, published 2018).

For the test, the system named is GFP-expressing Zaire Ebolavirus Mayinga-GFP. Kind of test: microbe, parasite or virus in culture. Type of test: cell-based. The note with it: HeLa, read-out: Activity (Biological activity, EC50).

Molecules are shown by their SMILES.

With `Cc1cc(/C=N/Nc2cc(N3CCOCC3)nc(OCCc3ccccn3)n2)ccn1` [Compound 19, (E)-4-(6-(2-((2-Methylpyridin-4-yl)methylene)hydrazinyl)-2-(2-(pyridin-2-yl)ethoxy)pyrimidin-4-yl)morpholine], the EC50 (commonly the concentration giving half of the maximal effect) is more than 50000 nM. As for `Cc1cnc(COc2nc(N/N=C/c3cccc(C)c3)cc(N3CCOCC3)n2)nc1` [Compound 58, (E)-4-(6-(2-(3-Methylbenzylidene)hydrazinyl)-2-((5-methylpyrimidin-2-yl)methoxy)pyrimidin-4-yl)morpholine], the figure is less than 1000 nM. Regarding `Cc1cccc(/C=N/Nc2cc(N3CCOCC3)nc(OCCc3ccncn3)n2)c1` [Compound 29, (E)-4-(6-(2-(3-Methylbenzylidene)hydrazinyl)-2-(2-(pyrimidin-4-yl)ethoxy)pyrimidin-4-yl)morpholine], the EC50 was in the range of 1000 to 50000 nM. Next, `Cc1cccc(/C=N/Nc2cc(N3CCSCC3)nc(OCCc3ccccn3)n2)c1` [Compound 26, (E)-4-(6-(2-(3-Methylbenzylidene)hydrazinyl)-2-(2-(pyridin-2-yl)ethoxy)pyrimidin-4-yl)thiomorpholine]: 1000 to 50000 nM; `Cc1cccc(/C=N/Nc2cc(N3CCOCC3)nc(-c3cccc(-c4ccccn4)c3)n2)c1` [Compound 30, (E)-4-(6-(2-(3-Methylbenzylidene)hydrazinyl)-2-(3-(pyridin-2-yl)phenyl)pyrimidin-4-yl)morpholine]: 1000 to 50000 nM. As for `Cc1cccc(/C=N/Nc2cc(N3CCOCC3)nc(OCCCc3ccccn3)n2)c1` [Compound 14, (E)-4-(6-(2-(3-Methylbenzylidene)hydrazinyl)-2-(3-(pyridin-2-yl)propoxy)pyrimidin-4-yl)morpholine], the figure is less than 1000 nM; as for `Cc1cccc(/C=N/Nc2cc(N3CCOCC3)nc(OCCc3cnccn3)n2)c1` [Compound 44, (E)-4-(6-(2-(3-Methylbenzylidene)hydrazinyl)-2-(2-(pyrazin-2-yl)ethoxy)pyrimidin-4-yl)morpholine], 1000 to 50000 nM; as for `Cc1cccc(/C=N/Nc2cc(N3CCOCC3)nc(Oc3ccc4nc(C)ccc4c3)n2)c1` [Compound 62, (E)-4-(6-(2-(3-Methylbenzylidene)hydrazinyl)-2-(2-methylquinolin-6-yloxy)pyrimidin-4-yl)morpholine], less than 1000 nM.

`Cc1cccc(/C=N/Nc2cc(N3CCOCC3)nc(OCCc3ccc(N4CCOCC4)cn3)n2)c1` [Compound 57]: the half-maximal effective concentration (EC50) was more than 50000 nM. Regarding `C(=N\Nc1cc(N2CCOCC2)nc(OCCc2ccccn2)n1)/c1cncnc1` [Compound 12, (E)-4-(2-(2-(Pyridin-2-yl)ethoxy)-6-(2-(pyrimidin-5-ylmethylene)hydrazinyl)pyrimidin-4-yl)morpholine], the EC50 is more than 50000 nM.

In the case of `Cc1cccc(/C=N/Nc2cc(N3CCOCC3)nc(OCC(C)(C)c3ccccc3)n2)c1` [Compound 36, (E)-4-(2-(2-Methyl-2-phenylpropoxy)-6-(2-(3-methylbenzylidene)hydrazinyl)pyrimidin-4-yl)morpholine], the EC50 was in the range of 1000 to 50000 nM.

Take `Cc1cccc(/C=N/Nc2cc(N3CCOCC3)nc(Oc3ccc4nccc(Cl)c4c3)n2)c1` [Compound 63, (E)-4-(2-(4-Chloroquinolin-6-yloxy)-6-(2-(3-methylbenzylidene)hydrazinyl)pyrimidin-4-yl)morpholine]: the half-maximal effective concentration (EC50) was less than 1000 nM. As for `CS(=O)(=O)c1cccc(/C=N/Nc2cc(N3CCOCC3)nc(OCCc3ccccn3)n2)c1` [Compound 61, (E)-4-(6-(2-(3-(Methylsulfonyl)benzylidene)hydrazinyl)-2-(2-(pyridin-2-yl)ethoxy)pyrimidin-4-yl)morpholine], the figure is more than 50000 nM. As for `Cc1cccc(/C=N/Nc2nc(OCCc3ccccn3)nc(N3CCOCC3)c2Cl)c1` [Compound 39, (E)-4-(5-Chloro-6-(2-(3-methylbenzylidene)hydrazinyl)-2-(2-(pyridin-2-yl)ethoxy)pyrimidin-4-yl)morpholine], the figure is more than 50000 nM. As for `Cc1cccc(/C=N/Nc2nc(OCCc3ccccn3)nc(N3CCOCC3)c2C)c1` [Compound 32, (E)-4-(5-Methyl-6-(2-(3-methylbenzylidene)hydrazinyl)-2-(2-(pyridin-2-yl)ethoxy)pyrimidin-4-yl)morpholine], the figure is 1000 to 50000 nM; as for `Cc1cccc(/C=N/Nc2cc(N3CCOCC3)nc(OCCc3ccccn3)n2)c1` [Compound 11, (E)-4-(6-(2-(3-Methylbenzylidene)hydrazinyl)-2-(2-(pyridin-2-yl)ethoxy)pyrimidin-4-yl)morpholine], less than 1000 nM; as for `Cc1cccc(/C=N/Nc2cc(N3CCOCC3)nc(OCCc3ccccc3)n2)c1` [Compound 20, (E)-4-(6-(2-(3-Methylbenzylidene)hydrazinyl)-2-phenethoxypyrimidin-4-yl)morpholine], 1000 to 50000 nM. On to `Cc1cccc(/C=N/Nc2cc(N3CCOCC3)nc(OCc3nccc(C)n3)n2)c1` [Compound 50, (E)-4-(6-(2-(3-Methylbenzylidene)hydrazinyl)-2-((4-methylpyrimidin-2-yl)methoxy)pyrimidin-4-yl)morpholine], for which the concentration for a half-maximal effect (EC50) was less than 1000 nM. Next, `CCC(Oc1nc(N/N=C/c2cccc(C)c2)cc(N2CCOCC2)n1)c1ncccn1` (centres unmarked) [Compound 65, (E)-4-(6-(2-(3-Methylbenzylidene)hydrazinyl)-2-(1-(pyrimidin-2-yl)propoxy)pyrimidin-4-yl)morpholine]: less than 1000 nM; `Cc1cccc(/C=N/Nc2cc(N3CCOCC3)nc(Oc3ccc4ccccc4c3)n2)c1` [Compound 53, (E)-4-(6-(2-(3-Methylbenzylidene)hydrazinyl)-2-(naphthalen-2-yloxy)pyrimidin-4-yl)morpholine]: less than 1000 nM; `Cc1cccc(/C=N/Nc2cc(N3CCOCC3)nc(OCC(C)c3ccccn3)n2)c1` (centres unmarked) [Compound 13, (E)-4-(6-(2-(3-Methylbenzylidene)hydrazinyl)-2-(2-(pyridin-2-yl)propoxy)pyrimidin-4-yl)morpholine]: less than 1000 nM. Next, `C(=N\Nc1cc(N2CCOCC2)nc(OCCc2ccccn2)n1)/c1ccncc1` [Compound 17, (E)-4-(2-(2-(Pyridin-2-yl)ethoxy)-6-(2-(pyridin-4-ylmethylene)hydrazinyl)pyrimidin-4-yl)morpholine]: more than 50000 nM. As for `Cc1cccc(/C=N/N(C)c2cc(N3CCOCC3)nc(OCCc3ccccn3)n2)c1` [Compound 37, (E)-4-(6-(1-Methyl-2-(3-methylbenzylidene)hydrazinyl)-2-(2-(pyridin-2-yl)ethoxy)pyrimidin-4-yl)morpholine], the figure is 1000 to 50000 nM; as for `Cc1cccc(/C=N/Nc2cc(N3CCOCC3)nc(Oc3ccc4ncc(F)cc4c3)n2)c1` [Compound 67, (E)-4-(2-(3-Fluoroquinolin-6-yloxy)-6-(2-(3-methylbenzylidene)hydrazinyl)pyrimidin-4-yl)morpholine], less than 1000 nM. `Cc1cccc(/C=N/Nc2cc(N3CCOCC3)nc(Oc3ccc4nccc(C)c4c3)n2)c1` [Compound 68, (E)-4-(6-(2-(3-Methylbenzylidene)hydrazinyl)-2-(4-methylquinolin-6-yloxy)pyrimidin-4-yl)morpholine]: the EC50 was less than 1000 nM. For the molecule `Cc1cccc(/C=N/Nc2cc(N3CCOCC3)nc(OC(C)c3ncccn3)n2)c1` (centres unmarked) [Compound 49, (E)-4-(6-(2-(3-Methylbenzylidene)hydrazinyl)-2-(1-(pyrimidin-2-yl)ethoxy)pyrimidin-4-yl)morpholine], the EC50 is less than 1000 nM.
